{"source": "the supplement of paper PMC12076712", "key": {"UniProt P45983": {"target": "UniProt P45983", "assay": "pIC50, competition of probe 3 labelling in live cells", "conditions": "cell material: Jurkat cells"}, "CDK4": {"target": "CDK4 (UniProt P11802)", "sequence (P11802 whole entry)": "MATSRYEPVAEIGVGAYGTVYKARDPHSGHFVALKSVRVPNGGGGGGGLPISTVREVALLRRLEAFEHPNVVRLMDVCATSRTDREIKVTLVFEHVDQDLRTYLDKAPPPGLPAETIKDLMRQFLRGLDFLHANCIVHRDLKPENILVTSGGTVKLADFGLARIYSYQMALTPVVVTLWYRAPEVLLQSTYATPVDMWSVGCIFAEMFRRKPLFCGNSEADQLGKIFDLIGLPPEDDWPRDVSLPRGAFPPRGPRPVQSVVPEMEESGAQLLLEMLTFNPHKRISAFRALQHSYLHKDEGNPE", "assay": "pIC50, competition of probe 3 labelling in live cells", "conditions": "cell material: Jurkat cells"}, "UniProt P51812": {"target": "UniProt P51812", "assay": "pIC50, competition of probe 3 labelling in live cells", "conditions": "cell material: Jurkat cells"}, "UniProt P36507": {"target": "UniProt P36507", "assay": "pIC50, competition of probe 3 labelling in live cells", "conditions": "cell material: Jurkat cells"}, "UniProt P35590": {"target": "UniProt P35590", "assay": "pIC50, kinobeads binding competition", "conditions": "cell material: Lysate mix", "summary_of_the_method": "(§1)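 pIC50 was obtained by fitting fold changes against vehicle to logistic dose-response curves with the R drc package, using biological duplicates. Kinobeads-bound proteins were digested and measured by TMT10 LC-MS/MS. Before this, either living Jurkat cells received nine compound concentrations (top 30 μM, 1:4 steps) for 60 min at 37 °C prior to lysis, or Jurkat lysate or a 1:1:1:1 HEK293/K-562/HepG2/placenta lysate mix received nine concentrations (top 30 μM, 1:5 steps) for 60 min at 4 °C.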"}, "UniProt Q05513": {"target": "UniProt Q05513", "assay": "pIC50, kinobeads binding competition", "conditions": "cell material: Lysate mix", "summary_of_the_method": "as §1"}, "UniProt P19525": {"target": "UniProt P19525", "assay": "pIC50, kinobeads binding competition", "conditions": "cell material: Lysate mix", "summary_of_the_method": "as §1"}, "UniProt Q9P286": {"target": "UniProt Q9P286", "assay": "pIC50, kinobeads binding competition", "conditions": "cell material: Lysate mix", "summary_of_the_method": "as §1"}, "UniProt P78368": {"target": "UniProt P78368", "assay": "pIC50, kinobeads binding competition", "conditions": "cell material: Lysate mix", "summary_of_the_method": "as §1"}, "TWF1": {"target": "TWF1 (UniProt Q12792)", "assay": "pIC50, kinobeads binding competition", "conditions": "cell material: Lysate mix", "summary_of_the_method": "as §1"}, "STRADB": {"target": "STRADB (UniProt Q9C0K7)", "sequence (Q9C0K7 whole entry)": "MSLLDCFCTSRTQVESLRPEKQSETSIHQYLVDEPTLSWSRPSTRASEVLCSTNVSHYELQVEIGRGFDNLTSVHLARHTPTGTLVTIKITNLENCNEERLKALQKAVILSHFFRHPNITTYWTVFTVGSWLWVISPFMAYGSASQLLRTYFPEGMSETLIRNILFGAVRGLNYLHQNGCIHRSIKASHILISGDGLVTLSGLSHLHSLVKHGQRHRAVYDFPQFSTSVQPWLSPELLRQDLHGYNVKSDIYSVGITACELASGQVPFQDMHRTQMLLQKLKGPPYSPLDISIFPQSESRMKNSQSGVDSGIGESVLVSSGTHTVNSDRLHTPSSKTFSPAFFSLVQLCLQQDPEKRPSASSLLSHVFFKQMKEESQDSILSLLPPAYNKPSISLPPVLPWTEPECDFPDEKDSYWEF", "assay": "pIC50, kinobeads binding competition", "conditions": "cell material: Lysate mix", "summary_of_the_method": "as §1"}, "PAK6": {"target": "PAK6 (UniProt Q9NQU5)", "assay": "pIC50, kinobeads binding competition", "conditions": "cell material: Jurkat lysate", "summary_of_the_method": "as §1"}, "UniProt Q6DT37": {"target": "UniProt Q6DT37", "sequence (Q6DT37 whole entry)": "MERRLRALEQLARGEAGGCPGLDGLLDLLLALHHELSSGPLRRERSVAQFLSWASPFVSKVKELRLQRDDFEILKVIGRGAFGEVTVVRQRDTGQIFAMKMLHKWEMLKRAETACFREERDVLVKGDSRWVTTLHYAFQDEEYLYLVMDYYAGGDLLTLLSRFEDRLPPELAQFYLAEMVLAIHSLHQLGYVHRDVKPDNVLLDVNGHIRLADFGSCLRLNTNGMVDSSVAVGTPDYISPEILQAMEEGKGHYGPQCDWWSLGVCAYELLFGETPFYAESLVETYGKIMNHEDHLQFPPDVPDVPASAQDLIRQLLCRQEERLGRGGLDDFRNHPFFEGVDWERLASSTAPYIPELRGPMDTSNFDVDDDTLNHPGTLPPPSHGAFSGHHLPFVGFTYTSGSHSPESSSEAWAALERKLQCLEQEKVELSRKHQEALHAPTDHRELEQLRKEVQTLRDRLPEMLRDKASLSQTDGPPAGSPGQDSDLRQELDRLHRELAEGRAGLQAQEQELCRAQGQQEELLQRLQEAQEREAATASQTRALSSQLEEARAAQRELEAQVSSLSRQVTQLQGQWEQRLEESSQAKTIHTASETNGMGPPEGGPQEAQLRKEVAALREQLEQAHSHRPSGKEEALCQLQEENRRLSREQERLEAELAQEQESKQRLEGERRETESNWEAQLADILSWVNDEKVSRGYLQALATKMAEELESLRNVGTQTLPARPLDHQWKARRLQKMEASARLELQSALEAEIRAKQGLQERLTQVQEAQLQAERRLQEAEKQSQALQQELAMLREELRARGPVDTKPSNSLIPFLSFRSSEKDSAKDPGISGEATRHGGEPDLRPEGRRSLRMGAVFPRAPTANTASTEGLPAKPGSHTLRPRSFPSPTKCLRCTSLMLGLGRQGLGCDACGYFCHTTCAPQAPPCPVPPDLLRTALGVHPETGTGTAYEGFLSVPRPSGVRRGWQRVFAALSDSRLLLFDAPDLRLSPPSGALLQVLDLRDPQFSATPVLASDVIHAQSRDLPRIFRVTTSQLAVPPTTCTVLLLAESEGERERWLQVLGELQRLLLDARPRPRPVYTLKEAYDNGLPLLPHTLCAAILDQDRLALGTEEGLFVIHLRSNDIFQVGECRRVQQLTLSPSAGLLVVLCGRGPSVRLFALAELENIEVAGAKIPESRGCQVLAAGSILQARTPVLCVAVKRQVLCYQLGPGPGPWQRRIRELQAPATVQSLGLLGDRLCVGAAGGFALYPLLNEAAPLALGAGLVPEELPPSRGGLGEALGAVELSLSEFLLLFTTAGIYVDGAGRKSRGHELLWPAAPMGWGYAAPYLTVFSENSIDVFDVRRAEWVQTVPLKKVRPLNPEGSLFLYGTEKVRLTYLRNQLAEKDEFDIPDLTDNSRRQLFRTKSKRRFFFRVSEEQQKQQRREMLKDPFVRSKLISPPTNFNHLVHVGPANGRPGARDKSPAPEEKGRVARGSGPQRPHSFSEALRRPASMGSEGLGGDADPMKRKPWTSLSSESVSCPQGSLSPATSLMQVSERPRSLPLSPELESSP", "assay": "pIC50, kinobeads binding competition", "conditions": "cell material: Lysate mix", "summary_of_the_method": "as §1"}, "RIPK1": {"target": "RIPK1 (UniProt Q13546)", "sequence (Q13546 whole entry)": "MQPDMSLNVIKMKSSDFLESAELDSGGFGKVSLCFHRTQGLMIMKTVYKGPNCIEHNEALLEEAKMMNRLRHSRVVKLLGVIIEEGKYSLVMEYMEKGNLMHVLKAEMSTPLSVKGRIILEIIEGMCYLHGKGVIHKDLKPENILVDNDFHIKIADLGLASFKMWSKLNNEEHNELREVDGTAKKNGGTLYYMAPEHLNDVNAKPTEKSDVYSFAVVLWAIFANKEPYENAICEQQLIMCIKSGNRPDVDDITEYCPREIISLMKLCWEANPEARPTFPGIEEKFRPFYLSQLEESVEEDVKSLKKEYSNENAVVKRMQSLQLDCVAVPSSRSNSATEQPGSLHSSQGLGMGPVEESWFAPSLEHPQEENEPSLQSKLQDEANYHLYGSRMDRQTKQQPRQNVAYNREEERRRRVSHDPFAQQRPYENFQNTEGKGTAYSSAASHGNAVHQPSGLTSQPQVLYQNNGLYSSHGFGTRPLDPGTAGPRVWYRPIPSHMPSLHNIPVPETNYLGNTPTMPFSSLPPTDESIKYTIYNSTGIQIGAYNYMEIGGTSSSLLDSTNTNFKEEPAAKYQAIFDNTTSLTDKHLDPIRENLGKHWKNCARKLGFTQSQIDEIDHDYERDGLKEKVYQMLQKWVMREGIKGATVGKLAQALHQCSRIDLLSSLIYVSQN", "assay": "pIC50, kinobeads binding competition", "conditions": "cell material: Jurkat cells", "summary_of_the_method": "as §1"}, "MTOR": {"target": "MTOR (UniProt P42345)", "assay": "pIC50, kinobeads binding competition", "conditions": "cell material: Jurkat cells", "summary_of_the_method": "as §1"}, "PASK": {"target": "PASK (UniProt Q96RG2)", "assay": "pIC50, kinobeads binding competition", "conditions": "cell material: Jurkat cells", "summary_of_the_method": "as §1"}, "TYRO3": {"target": "TYRO3 (UniProt Q06418)", "assay": "pIC50, kinobeads binding competition", "conditions": "cell material: Jurkat lysate", "summary_of_the_method": "as §1"}, "UniProt P05129": {"target": "UniProt P05129", "assay": "pIC50, kinobeads binding competition", "conditions": "cell material: Jurkat cells", "summary_of_the_method": "as §1"}, "PIK3CD": {"target": "PIK3CD (UniProt O00329)", "assay": "pIC50, kinobeads binding competition", "conditions": "cell material: Jurkat cells", "summary_of_the_method": "as §1"}, "LYPLA2": {"target": "LYPLA2 (UniProt O95372)", "assay": "pIC50, competition of probe 3 labelling in live cells", "conditions": "cell material: Jurkat cells"}, "LYPLA1": {"target": "LYPLA1 (UniProt O75608)", "assay": "pIC50, competition of probe 3 labelling in live cells", "conditions": "cell material: Jurkat cells"}, "FER": {"target": "FER (UniProt P16591)", "sequence (P16591 whole entry, looked up)": "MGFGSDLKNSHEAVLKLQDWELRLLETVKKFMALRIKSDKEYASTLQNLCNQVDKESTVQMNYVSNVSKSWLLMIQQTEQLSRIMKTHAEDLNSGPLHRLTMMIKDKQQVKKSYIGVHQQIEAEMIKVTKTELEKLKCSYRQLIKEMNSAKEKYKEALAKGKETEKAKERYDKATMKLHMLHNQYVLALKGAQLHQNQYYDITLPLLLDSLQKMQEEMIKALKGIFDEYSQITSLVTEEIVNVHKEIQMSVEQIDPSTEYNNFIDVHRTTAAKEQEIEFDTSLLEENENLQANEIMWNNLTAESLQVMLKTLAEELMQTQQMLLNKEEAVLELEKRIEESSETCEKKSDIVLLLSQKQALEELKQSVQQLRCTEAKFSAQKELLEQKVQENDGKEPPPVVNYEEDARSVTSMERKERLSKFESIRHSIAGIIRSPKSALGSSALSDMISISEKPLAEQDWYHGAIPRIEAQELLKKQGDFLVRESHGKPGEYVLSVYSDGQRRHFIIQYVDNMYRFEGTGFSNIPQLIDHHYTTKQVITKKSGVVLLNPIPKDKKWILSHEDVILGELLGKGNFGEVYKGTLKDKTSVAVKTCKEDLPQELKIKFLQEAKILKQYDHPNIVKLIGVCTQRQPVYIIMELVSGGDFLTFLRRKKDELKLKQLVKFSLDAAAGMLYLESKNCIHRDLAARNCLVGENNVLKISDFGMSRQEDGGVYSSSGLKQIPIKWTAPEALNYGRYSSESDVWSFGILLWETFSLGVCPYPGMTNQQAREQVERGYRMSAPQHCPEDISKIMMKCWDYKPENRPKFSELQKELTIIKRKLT", "assay": "pIC50, competition of probe 3 labelling in live cells", "conditions": "cell material: Jurkat cells"}, "NT5C3B": {"target": "NT5C3B (UniProt Q969T7)", "assay": "pIC50, competition of probe 3 labelling in live cells", "conditions": "cell material: Jurkat cells"}, "BLK": {"target": "BLK (UniProt P51451)", "assay": "pIC50, competition of probe 3 labelling in live cells", "conditions": "cell material: Jurkat cells"}, "CAMKK2": {"target": "CAMKK2 (UniProt Q96RR4)", "assay": "pIC50, competition of probe 3 labelling in live cells", "conditions": "cell material: Jurkat cells"}, "UniProt Q15208": {"target": "UniProt Q15208", "assay": "pIC50, competition of probe 3 labelling in live cells", "conditions": "cell material: Jurkat cells"}, "PNPLA6": {"target": "PNPLA6 (UniProt Q8IY17)", "assay": "pIC50, competition of probe 3 labelling in live cells", "conditions": "cell material: Jurkat cells"}, "UniProt P28482": {"target": "UniProt P28482", "assay": "pIC50, kinobeads binding competition", "conditions": "cell material: Jurkat lysate"}, "UniProt P23443": {"target": "UniProt P23443", "sequence (P23443 whole entry, looked up)": "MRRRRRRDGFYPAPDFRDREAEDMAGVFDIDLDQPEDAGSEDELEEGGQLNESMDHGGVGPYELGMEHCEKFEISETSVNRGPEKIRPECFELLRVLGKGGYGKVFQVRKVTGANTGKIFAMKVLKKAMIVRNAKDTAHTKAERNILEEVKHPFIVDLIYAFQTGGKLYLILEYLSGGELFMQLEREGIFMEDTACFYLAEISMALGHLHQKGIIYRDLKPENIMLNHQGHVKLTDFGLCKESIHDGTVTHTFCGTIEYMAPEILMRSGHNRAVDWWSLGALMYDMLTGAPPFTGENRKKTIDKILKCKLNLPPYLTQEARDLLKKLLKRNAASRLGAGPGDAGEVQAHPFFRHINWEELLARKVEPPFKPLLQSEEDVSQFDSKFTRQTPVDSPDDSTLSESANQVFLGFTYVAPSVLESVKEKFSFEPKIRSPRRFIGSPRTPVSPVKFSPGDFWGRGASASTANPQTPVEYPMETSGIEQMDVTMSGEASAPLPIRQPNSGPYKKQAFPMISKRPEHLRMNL", "assay": "pIC50, kinobeads binding competition", "conditions": "cell material: Jurkat lysate"}, "TEC": {"target": "T1, TEC (UniProt P42680)", "T1 sequence (whole entry)": "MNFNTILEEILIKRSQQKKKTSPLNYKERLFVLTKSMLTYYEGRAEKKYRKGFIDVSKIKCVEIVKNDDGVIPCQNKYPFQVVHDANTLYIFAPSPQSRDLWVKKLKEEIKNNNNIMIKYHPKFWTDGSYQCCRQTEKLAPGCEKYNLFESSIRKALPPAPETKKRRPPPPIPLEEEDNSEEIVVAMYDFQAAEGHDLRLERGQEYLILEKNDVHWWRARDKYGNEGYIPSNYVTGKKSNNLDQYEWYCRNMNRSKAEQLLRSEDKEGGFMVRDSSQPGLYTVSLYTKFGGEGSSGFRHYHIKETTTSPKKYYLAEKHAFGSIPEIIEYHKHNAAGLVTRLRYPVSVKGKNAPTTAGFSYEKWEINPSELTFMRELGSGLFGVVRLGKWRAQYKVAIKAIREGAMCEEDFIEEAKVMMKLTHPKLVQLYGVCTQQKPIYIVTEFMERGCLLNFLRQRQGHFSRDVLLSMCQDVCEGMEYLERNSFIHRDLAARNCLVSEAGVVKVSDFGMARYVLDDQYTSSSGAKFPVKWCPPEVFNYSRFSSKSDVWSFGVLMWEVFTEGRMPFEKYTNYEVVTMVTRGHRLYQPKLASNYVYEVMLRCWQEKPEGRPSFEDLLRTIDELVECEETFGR", "assay": "pIC50, kinobeads binding competition", "conditions": "cell material: Jurkat lysate"}}, "data": [{"smiles": "CC#CC(=O)Nc1ccc2ncnc(Nc3cccc(Br)c3)c2c1", "note": "[EKI-785]", "values": [{"measurement": "pIC50", "setting": "UniProt P45983", "result": "< 4.52"}, {"measurement": "pIC50", "setting": "CDK4", "result": "< 4.52"}, {"measurement": "pIC50", "setting": "UniProt P51812", "result": "< 4.52"}, {"measurement": "pIC50", "setting": "UniProt P36507", "result": "< 4.52"}]}, {"smiles": "CCNC(=O)c1cc(Nc2cc(C)[nH]n2)nc(N2CCN(Cc3ccc(S(=O)(=O)F)cc3)CC2)n1", "values": [{"measurement": "pIC50", "setting": "UniProt P35590", "result": "< 4.52"}, {"measurement": "pIC50", "setting": "UniProt Q05513", "result": "< 4.52"}, {"measurement": "pIC50", "setting": "UniProt P19525", "result": "< 4.52"}]}, {"smiles": "Cc1cc(Nc2cc(C(=O)NCCNC(=O)OC3CC/C=C/CCC3)nc(N3CCN(Cc4ccc(S(=O)(=O)F)cc4)CC3)n2)n[nH]1", "note": "(stereo not given)", "values": [{"measurement": "pIC50", "setting": "UniProt Q9P286", "result": "< 4.52"}, {"measurement": "pIC50", "setting": "UniProt P78368", "result": "< 4.52"}, {"measurement": "pIC50", "setting": "TWF1", "result": "< 4.52"}, {"measurement": "pIC50", "setting": "STRADB", "result": "< 4.52"}]}, {"smiles": "C#CCNC(=O)c1cc(Nc2cc(C3CC3)[nH]n2)nc(N2CCN(Cc3ccc(S(=O)(=O)F)cc3)CC2)n1", "values": [{"measurement": "pIC50", "setting": "PAK6", "result": 5.49}, {"measurement": "pIC50", "setting": "UniProt Q6DT37", "result": "< 4.52"}, {"measurement": "pIC50", "setting": "RIPK1", "result": 5.32}, {"measurement": "pIC50", "setting": "MTOR", "result": "< 4.52"}, {"measurement": "pIC50", "setting": "PASK", "result": 4.7}, {"measurement": "pIC50", "setting": "TYRO3", "result": "< 4.52"}]}, {"smiles": "O=C(NCCNC(=O)c1cc(Nc2cc(C3CC3)[nH]n2)nc(N2CCN(Cc3ccc(S(=O)(=O)F)cc3)CC2)n1)OC1CC/C=C/CCC1", "note": "(stereo not given)", "values": [{"measurement": "pIC50", "setting": "UniProt P05129", "result": 4.77}, {"measurement": "pIC50", "setting": "PIK3CD", "result": "< 4.52"}]}, {"smiles": "CCc1cnn2c(NCc3ccc[n+]([O-])c3)cc(N3CCCC[C@H]3CCO)nc12", "note": "[dinaciclib]", "values": [{"measurement": "pIC50", "setting": "LYPLA2", "result": "< 4.52"}, {"measurement": "pIC50", "setting": "LYPLA1", "result": "< 4.52"}, {"measurement": "pIC50", "setting": "FER", "result": "< 4.52"}, {"measurement": "pIC50", "setting": "NT5C3B", "result": "< 4.52"}, {"measurement": "pIC50", "setting": "BLK", "result": "< 4.52"}, {"measurement": "pIC50", "setting": "CAMKK2", "result": "< 4.52"}, {"measurement": "pIC50", "setting": "UniProt Q15208", "result": "< 4.52"}, {"measurement": "pIC50", "setting": "PNPLA6", "result": "< 4.52"}, {"measurement": "pIC50", "setting": "UniProt P28482", "result": "< 4.52"}, {"measurement": "pIC50", "setting": "UniProt P23443", "result": "< 4.52"}, {"measurement": "pIC50", "setting": "TEC", "result": "< 4.52"}]}]}
